Measured values: patent US20230120142A1, “COMPOSITIONS AND METHODS FOR THE TREATMENT OF INTRACELLULAR BACTERIAL INFECTIONS” (Endolytix Technology, Inc., priority 2020, published 2023)

Test system: M. abscessus cells
Experiment: Cell growth assay of ABIα plus antibiotic, Fractional Inhibitory Concentration (FIC) index
Format: cell-based, Mycobacterium abscessus
Settings: antibiotic in combination with ABIα cocktail; FIG. 5

Compound | interaction by Fractional Inhibitory Concentration (FIC) index on attenuation of M. abscessus growth
NCC[C@H](O)C(=O)N[C@@H]1C[C@H](N)[C@@H](O[C@H]2O[C@H](CN)[C@@H](O)[C@H](O)[C@H]2O)[C@H](O)[C@H]1O[C@H]1O[C@H](CO)[C@@H](O)[C@H](N)[C@H]1O [amikacin] | synergistic effects
C[C@@H](O)[C@H]1C(=O)N2C(C(=O)[O-])=C(SC3Cn4cnc[n+]4C3)[C@H](C)[C@H]12 (stereo partly drawn) [biapenem] | synergistic effects
CO[C@@]1(NC(=O)Cc2cccs2)C(=O)N2C(C(=O)O)=C(COC(N)=O)CS[C@@H]21 [cefoxitin] | synergistic effects
